The values below come from PubChem BioAssay (NCI).

Several values for one entry are separate records, joined by “and”; a condition that tells them apart may be missing. Identical values can stand only once.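 Compound exposure: 48 hours, 5 concentrations, 96-well plates. GI50 = concentration required for 50% inhibition of growth. Definition used: TGI = concentration required for complete inhibition of growth.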 Bounds are passed on as bounds.

Among the test systems are 786-0 renal; EKVX NSCLC; LOX IMVI melanoma; OVCAR-5 ovarian; RPMI-8226 leukemia; SF-295 CNS; SK-MEL-2 melanoma; SK-MEL-28 melanoma; SK-MEL-5 melanoma; SK-OV-3 ovarian.
Experiment in all cases: DTP human tumour cell line panel, 48 h

Broadly, the GI50 is the concentration giving 50% growth inhibition. In general, TGI refers to the concentration giving total growth inhibition. Turning to `CC[O-].CC[O-].O=C1C(=C([O-])c2ccccc2)C(=O)c2ccccc21.O=C1C(=C([O-])c2ccccc2)C(=O)c2ccccc21.[Ti+4]`, the GI50 with 786-0 renal is over 100 µM; in the experiment on EKVX NSCLC it was 24.3 µM; in the experiment on LOX IMVI melanoma, over 100 µM; in the experiment with OVCAR-5 ovarian it was over 100 µM; with RPMI-8226 leukemia, 42.5 µM; in the experiment with SF-295 CNS, 98.4 µM. Also, the values for the GI50 in the experiment on SK-MEL-2 melanoma, in the experiment on SK-MEL-28 melanoma and in the experiment with SK-MEL-5 melanoma were 66.3 µM, over 10 µM and over 100 µM, respectively. Further, the TGI with 786-0 renal, with EKVX NSCLC, in the experiment on LOX IMVI melanoma, in the experiment on OVCAR-5 ovarian, in the experiment on RPMI-8226 leukemia and in the experiment on SF-295 CNS was over 100 µM each time. Also, the TGI is over 100 µM in the experiment with SK-MEL-2 melanoma, over 10 µM in the experiment on SK-MEL-28 melanoma and over 100 µM with SK-MEL-5 melanoma.

With `Fc1cccc(Cl)c1C1SCc2nc3ccccc3n21` (configuration not stated), the TGI was over 100 µM in the experiment on 786-0 renal; over 100 µM with EKVX NSCLC; 38 µM in the experiment with LOX IMVI melanoma; over 100 µM in the experiment with OVCAR-5 ovarian; 60.2 µM in the experiment with RPMI-8226 leukemia; 95.2 µM with SF-295 CNS. Also, the TGI in the experiment with SK-MEL-2 melanoma turned out to be 51 µM; in the experiment with SK-MEL-5 melanoma it was 29.7 µM; in the experiment on SK-OV-3 ovarian it was 62.2 µM.

As for `O=C1[C@@H](c2ccc(Cl)cc2)[C@H]2CC=C[C@H]2N1O`, the TGI with 786-0 renal, in the experiment on EKVX NSCLC, in the experiment on LOX IMVI melanoma, in the experiment with RPMI-8226 leukemia, with SF-295 CNS and in the experiment with SK-MEL-2 melanoma was over 100 µM throughout. Also, the TGI in the experiment with SK-MEL-28 melanoma, in the experiment on SK-MEL-5 melanoma and in the experiment with SK-OV-3 ovarian was over 100 µM each time.

On to `O=[N+]([O-])c1ccc(N=Nc2c(O)[nH]c3ccc([N+](=O)[O-])cc23)cc1`, for which the TGI with 786-0 renal is 17 µM; in the experiment with EKVX NSCLC, over 100 µM; in the experiment on LOX IMVI melanoma it was over 100 µM; in the experiment on RPMI-8226 leukemia it was 36.2 µM; in the experiment on SF-295 CNS it was 27.5 µM; in the experiment with SK-MEL-2 melanoma it was over 100 µM. Besides, the TGI in the experiment with SK-MEL-28 melanoma is 47.4 µM; with SK-MEL-5 melanoma, 26.7 µM; with SK-OV-3 ovarian it was 58.5 µM.

Take `COC(=O)C1=CCON(c2ccccc2)C1c1ccccc1` (configuration not stated): the TGI with 786-0 renal, in the experiment with EKVX NSCLC, with LOX IMVI melanoma, in the experiment with OVCAR-5 ovarian, in the experiment with RPMI-8226 leukemia and in the experiment on SK-MEL-2 melanoma was over 100 µM throughout. Further, the TGI with SK-MEL-28 melanoma and in the experiment with SK-OV-3 ovarian was over 100 µM throughout.

As to `CC(=O)N(CCN)CCN`, the TGI was over 10 µM in the experiment with 786-0 renal; over 100 µM in the experiment on EKVX NSCLC; over 10 µM in the experiment with LOX IMVI melanoma; over 10 µM with RPMI-8226 leukemia; over 10 µM in the experiment on SF-295 CNS; over 100 µM in the experiment with SK-MEL-2 melanoma. Further, the figures for the TGI with SK-MEL-28 melanoma, with SK-MEL-5 melanoma and in the experiment with SK-OV-3 ovarian were over 10 µM, over 100 µM and over 100 µM, respectively.

`COc1cc(/C=C2\CN(C)CC3=C2Nc2nc(SC)[nH]c(=O)c2C3c2cc(OC)c(OC)c(OC)c2)cc(OC)c1OC` (configuration not stated): the GI50 is 4.01 µM in the experiment on 786-0 renal; 8.44 µM with EKVX NSCLC; 1.66 µM with LOX IMVI melanoma; 4.83 µM with OVCAR-5 ovarian; 2.24 µM in the experiment with SF-295 CNS; 9.92 µM in the experiment on SK-MEL-2 melanoma. For the same compound, the GI50 with SK-MEL-28 melanoma was 2.1 µM; in the experiment on SK-MEL-5 melanoma, 2.83 µM; with SK-OV-3 ovarian, 3.07 µM. The TGI in the experiment on 786-0 renal came out at 16.9 µM; with EKVX NSCLC, 66.4 µM; in the experiment on LOX IMVI melanoma, 3.94 µM; with OVCAR-5 ovarian, 16.7 µM; with SF-295 CNS, 5.47 µM; with SK-MEL-2 melanoma, 33.3 µM. Besides, the figures for the TGI in the experiment on SK-MEL-28 melanoma, in the experiment on SK-MEL-5 melanoma and in the experiment with SK-OV-3 ovarian were 4.29 µM, 11.9 µM and 12.5 µM, respectively.

For the compound `Clc1ccc([O][In]([O]c2ccc(Cl)cn2)[O]c2ccc(Cl)cn2)nc1`, the GI50 with 786-0 renal is over 100 µM; with EKVX NSCLC, over 100 µM; in the experiment with LOX IMVI melanoma, over 100 µM; in the experiment with OVCAR-5 ovarian, over 100 µM; in the experiment with SF-295 CNS it was 25.2 µM; with SK-MEL-2 melanoma, over 100 µM. Further, the GI50 is over 100 µM in the experiment on SK-MEL-28 melanoma, 15.8 µM in the experiment on SK-MEL-5 melanoma and 64.4 µM in the experiment with SK-OV-3 ovarian. Besides, the TGI was over 100 µM in the experiment on 786-0 renal; over 100 µM in the experiment with EKVX NSCLC; over 100 µM in the experiment with LOX IMVI melanoma; over 100 µM in the experiment with OVCAR-5 ovarian; 47.5 µM in the experiment on SF-295 CNS; over 100 µM in the experiment on SK-MEL-2 melanoma. Further, the TGI in the experiment with SK-MEL-28 melanoma is over 100 µM; with SK-MEL-5 melanoma, 76.8 µM; in the experiment with SK-OV-3 ovarian, over 100 µM.

`O=C(CCc1nc(=S)[nH][nH]1)NC12CC3CC(CC(C3)C1)C2`: the TGI in the experiment on 786-0 renal, in the experiment with EKVX NSCLC, in the experiment on LOX IMVI melanoma, with OVCAR-5 ovarian, in the experiment with SF-295 CNS and in the experiment on SK-MEL-2 melanoma was over 100 µM in each case. Besides, the TGI with SK-MEL-28 melanoma, with SK-MEL-5 melanoma and in the experiment on SK-OV-3 ovarian was over 100 µM throughout.

Turning to `CCc1ccccc1NC(=O)C(=O)C(C(=O)c1ccc(OC)cc1)c1ccc(OC)cc1` (configuration not stated), the TGI in the experiment with 786-0 renal, with EKVX NSCLC, in the experiment on LOX IMVI melanoma, in the experiment on OVCAR-5 ovarian, in the experiment on RPMI-8226 leukemia and in the experiment with SF-295 CNS was over 100 µM in each case. Also, the TGI in the experiment with SK-MEL-2 melanoma, with SK-MEL-5 melanoma and in the experiment with SK-OV-3 ovarian was over 100 µM in each case.

`COc1cc(C2c3cc4c(cc3[C@@H](Nc3ccc(N(C)C)cc3)[C@H]3COC(=O)C23)OCO4)cc(OC)c1O` (some centres not stated): the GI50 was 0.362 µM with 786-0 renal; 2.37 µM in the experiment with EKVX NSCLC; 1.96 µM in the experiment on OVCAR-5 ovarian; 0.223 µM in the experiment on SF-295 CNS; 3.58 µM in the experiment with SK-MEL-2 melanoma; 12.1 µM with SK-MEL-28 melanoma. Moreover, the GI50 in the experiment with SK-MEL-5 melanoma was 1.12 µM; in the experiment with SK-OV-3 ovarian it was 0.279 µM. The TGI in the experiment on 786-0 renal is 1.37 µM and 4.91 µM; with EKVX NSCLC it was 9.57 µM and 9.64 µM; in the experiment on LOX IMVI melanoma, 17.6 µM; in the experiment on OVCAR-5 ovarian, 6.21 µM and 16.2 µM; with SF-295 CNS, 0.483 µM and 1.47 µM; with SK-MEL-2 melanoma, 9.12 µM and 12 µM. Besides, the TGI was 14.9 µM and 28.2 µM with SK-MEL-28 melanoma; 2.46 µM and 4.52 µM in the experiment on SK-MEL-5 melanoma; 2.23 µM and 5.72 µM in the experiment on SK-OV-3 ovarian.

Take `O=c1oc2ccccc2c(O)c1C=NC(=S)c1ccncc1`: the TGI with 786-0 renal, in the experiment with EKVX NSCLC, in the experiment with LOX IMVI melanoma, in the experiment on OVCAR-5 ovarian, in the experiment with SF-295 CNS and in the experiment with SK-MEL-2 melanoma was over 100 µM each time. In addition, the TGI in the experiment with SK-MEL-28 melanoma, in the experiment on SK-MEL-5 melanoma and in the experiment with SK-OV-3 ovarian was over 100 µM throughout.
